Laboratory results as given in US20120283334A1, “Treatment of Viral Infections” (Biocopea, Ltd., priority 2009, published 2012).
Entries after “also recorded” stand apart in the source; their conditions may differ.

Legend:
[1] = system: Influenza A/PR/8/34 (H1N1 virus); test: In vivo mouse influenza challenge, dobutamine and ritodrine intra-peritoneal; settings: H1N1-infected mice; for Sum Total Morbidity: FIG. 3
Method: 5) In Vivo Mouse Studies Using Dobutamine
Protocol: Fifty (50) C57BL/6 female mice (6-7 weeks old), were divided into […] experimental groups containing ten (10) animals each. On day 1, animals received an intranasal lethal dose (50 μl total, 25 μl nostril) of Influenza A/PR/8/34 under halothane induced anesthesia. On Day 3, animals received one intra-peritoneal injection (100-150 μl) of the test compound. On Day 4 or 5, all animals still alive received a second intra-peritoneal injection (100-150 μl) of the test compound.
All animals were assessed daily for morbidity, weight loss and survival from Day 1 until at least Day 6. Morbidity variables (i.e. Body Condition, Posture, Activity, Piloerection, Respiration, Vocalisation, Ataxia and Oculo/Nasal Discharges) were recorded according to the following scale of severity: Normal (0), Mild (1), Laboured (2) and Severe/Cull-point (3).
Using standard techniques as described above, mice were infected with a H1N1 virus which was allowed to become established in each of the subjects. Each test mouse was then treated with dobutamine (BC1021) either with a single dose on day 3 after infection with the virus, or as two doses, one on day 3 and one on day 4 after infection. In the control mice, no dobutamine was administered. The weight loss of both treated and untreated mice was then determined.
The inventors also investigated the effects of dobutamine (single and double doses) as well as ritodrine (single and double doses) on the Sum Total Morbidity of the tested mice. Referring to FIG. 3, there are shown the data of these experiments. The value of Sum Total Morbidity corresponds to a confidence value of the general “wellness” of the mice, and takes into account the quality of the fur and grooming of the mice, and whether or not the mice are able to feed and walk. Measurement of Morbidity values will be known to the skilled technician.

[2] = system: IFN-γ; test: IFN-γ levels in PBMC under LPS stimulation (ELISA); type: cell-based, human; settings: for Percentage IFN-γ levels compared to 100% untreated cells under LPS stimulation: PBMC; for concentration of IFN-γ in LPS stimulated cells: text summary of Table 1, concentration not stated
Method: 1) Isolation, Culture and Treatment of Peripheral Blood Mononuclear Cells (PBMC) Blood was collected in 6 ml vacutainers (green cap). Blood was processed within 2 h of collection. Materials used: Non-coagulated blood; FCS; RPMI-1640 media supplemented with L-Gln and P/S; PBS; sterile tips and pipettes; Sterile 15 ml Falcon; Sterile V-bottom 96-well plates with lids; Neubauer chamber; Trypan Blue solution; 70% IPA solution; Accuspin-Histopaque tubes (Sigma, A7054) Procedure: • 1. Dilute samples 1:1 in sterile PBS; • 2. Add 30 ml of diluted blood into an Accuspin-Histopaque tube (Sigma, A7054); • 3. Centrifuge at 800 rcf 15min at room temperature (RT); • 4. After centrifugation, the red blood cells will remain at the bottom below the frit. The monocytes (PBMC) will be present on a layer above the frit, with the plasma on top; • 5. Collect the PBMC layer with a pipette into a fresh 15 ml Falcon tube and top up to 15 ml of PBS; • 6. Centrifuge at 250 rcf 10 min at RT; • 7. Discard the supernatant, flick the pellet and add another 10 ml of PBS; • 8. Centrifuge at 250 rcf 10 min at RT; • 9. Repeat steps 7 and 8; • 10. […] Count cells and make a 4×10^6 cell/ml suspension in complete medium. Add 100 μl of cell suspension per well in a V-bottom 96-well plate. Then add 50 μl of stimulant or vehicle in complete media, and 50 μl of drug or vehicle in complete media. Incubate the cells for 24 h at 37° C. 5% CO2; • 12. After incubation, take 60 μl of cell supernatant to measure IFNγ and TNFα by ELISA (OptEIA human IFNγ, cat No. 555142 and human TNF, Cat No. 555212) following manufacturer's instructions (BD Biosciences); The two mitogens that the inventors used to stimulate lymphocytes, and therefore assess immune function, were lipopolysaccharide (LPS) and Concanavalin A (Con A). LPS acts on B cells but not T cells, whereas Con A acts on T cells but not B cells. The effects of two embodiments of the compound represented by formula I, i.e. dobutamine (referred to in the tables as BC1021) and ritodrine (BC1023), on the levels of IFN-γ and TNF-α were investigated in LPS and Con A stimulated assays. Peripheral Blood Mononuclear Cells (PMBC) were independently administered with each mitogen, LPS or Con A, and then treated with either dobutamine or ritodrine. Control experiments were conducted in which no LPS or Con A was added, such that any effect on the levels of IFN-γ and TNF-α could be directly attributed to the presence of the test compound, dobutamine or ritodrine. The values in the Tables are expressed as the percentage value of the LPS only control. […] Standard deviation values (s.d.) are given underneath each value of expressed IFN-γ levels.

[3] = two doses on days 3 and 4 (Groups C and E)

Row | SMILES | Sum Total Morbidity ([1]; all doses, single or double) | Sum Total Morbidity [1, 3] | Percentage IFN-γ levels compared to 100% untreated cells under LPS stimulation ([2]; + LPS, compound 1 μM, 24 h) | Percentage IFN-γ levels compared to 100% untreated cells under LPS stimulation ([2]; + LPS, compound 10 μM, 24 h) | Percentage IFN-γ levels compared to 100% untreated cells under LPS stimulation ([2]; + LPS, compound 100 μM, 24 h) | Percentage IFN-γ levels compared to 100% untreated cells under LPS stimulation ([2]; compound only (no LPS), 1 μM) | Percentage IFN-γ levels compared to 100% untreated cells under LPS stimulation ([2]; compound only (no LPS), 10 μM) | Percentage IFN-γ levels compared to 100% untreated cells under LPS stimulation ([2]; compound only (no LPS), 100 μM) | concentration of IFN-γ in LPS stimulated cells [2] | effect on weight loss ([1]; single dose on day 3, FIG. 1) | percentage survival of mice ([1]; single dose on day 3, FIG. 2) | lower reduction in weight loss than the control mice ([1]; two doses on days 3 and 4 after infection, FIG. 1) | percentage survival of mice ([1]; two doses, day 3 and day 4, FIG. 2)
1 | CC(NCCc1ccc(O)cc1)C(O)c1ccc(O)cc1 (stereo not shown) [BC1023, ritodrine] | improvement of the morbidity value | the most improvements | 44.79% | 51.41% | 38.74% | 1.04% | 2.73% | 5.46% | decreased | – | – | – | –
2 | CC(CCc1ccc(O)cc1)NCCc1ccc(O)c(O)c1 (stereo not shown) [BC1021, dobutamine] | improvement of the morbidity value | the most improvements; also recorded: the most effective | 82.88% | 29.84% | 37.22% | 1.21% | −0.33% | −0.99% | decreased | little effect | little effect | ≥ 10% | higher survival rate than the control
